The values that follow come from patent US8575217B2, “Anti-inflammatory and antioxidant conjugates useful for treating metabolic disorders” (Genmedica Therapeutics SL, priority 2009, dated 2013).

Data set [1] relates to db/db mice. In words: Chronic treatment in db/db mice. The data set is classed as in vivo.
Data set [2] is described as follows: Chemical stability of conjugates in neutral, acidic and basic solutions. The data set is classed as physicochemical. The procedure:
Exemplary expérimental results showing the efficacy of certain embodiments of the combinations of the invention are set forth in the drawings. Stability studies were performed on thioester conjugates of N-acetylcysteine and salicylate, diflunisal or dexibuprofen, at neutral (pH 7), acidic, or basic (9) pH in phosphate-buffered saline (PBS). […] Diflunisal-NAC conjugates were tested for 3 or 24 hours under the same neutral, acidic and basic conditions, at room température or 4° C., and in PBS or mixture of water and méthanol.

Data set [3] relates to db/db mice. The experiment in a line: Intraperitoneal glucose tolerance test in db/db mice. The data set is classed as in vivo. Conditions: salicylate-NAC 1.5, diflunisal-NAC 0.5 mmol/kg/day as lysine salt; glucose 0.5 g/kg ip, 120 minute timecourse. The procedure: At the fourth week of treatment, a Glucose Tolerance Test was done to the mice after an overnight fasting. The animals received an ip injection of Glucose 0.5 g/kg (Glucosmon 50®). The glycemia levels were determined in blood at the indicated time from the Tail Vein after the Glucose injection using a rapid glucose analyzer.

The nature of data set [4]: Cleavage by rat liver microsomes. The data set is classed as in vitro ADME. As to conditions: 1 hour incubation; for cleavage of conjugate, rat versus human microsomes: free salicylate or diflunisal assayed. The procedure:
(§1) In vitro cleavage experiments were performed substantiallas described in Singh et al., 1996, In vitro metabolism of a potent HIV-protease inhibitor (141W94) using rat, monkey and human liver S9, Rapid Commun. Mass Spectrom. 10: 1019-1026. Briefly, conjugate compounds of the invention were incubated at a final concentration of 1 microM for 1 hour in the presence of human or rat liver microsome S9 (obtained from Xenotech). At the end of incubation at each of the time points reported, an equal volume of an organic mixture (acetonitrile/methanol, 50/50, v/v) was added to the incubation mixture followed by centrifugation. At this time blank microsomal extract was spiked with metabolites to create calibration standards for each metabolite at the following concentrations: 0 (blank), 0.05, 0.1, 0.5 and 1 microM. All samples were analyzed by HPLC-MS/MS and the peak areas corresponding to the expected metabolites (generally, antioxidant and anti-inflammatory cleaysasge products) were determined by HPLC-MS/MS. The amount of each metabolite present in the 60 minute incubation samples was determined from the corresponding calibration curve.
The capacity for conjugates of the invention to be cleaved was tested in vitro using rat or human liver microsomes. […] Similar experiments were performed in plasma from rat or human for salicylate-NAC or diflunisal-NAC conjugates; thèse results are shown in FIGS. 3 and 4, respectively.
For orientation: Microsomes from liver hold many membrane-bound enzymes, among them those of drug oxidation.

Data set [5] concerns alloxan-treated cd-1 mice. In words: In vivo beta cell protection model (alloxan). Conditions: for plasma insulin levels: lysine salt, alloxan-treated (FIG. 6). The procedure:
Beta-cell destruction was induced in cd-1 mice after 3 hours of fasting by a single intraperitoneal injection of a freshly prepared solution of alloxan 200 mg/kg (Sigma-Aldrich, San Luis, Mo.) that was dissolved in NaCl 0.9%. Single intraperitoneal drug administration was 1 hour before the alloxan administration. Animals received the different drugs dissolved in PBS pH 7.4, and the animals that not received any drug were injected with the vehicle, in this case PBS pH 7.4. At the end of the treatment, at day 4, animals were killed and the plasma collected and kept at −20° C. until used.
(§2) The circulating glucose concentration was determined by a rapid glucose analyzer (Accu-Chek Aviva; Roche). Plasma triglycerides and non esterified fatty acids were determined with standard colorimetric methods (Biosystems, Barcelona, Spain, and Wako Chemicals, Neuss, Germany, respectively). Plasma insulin concentration was determined by enzyme-linked immunosorbent assay method (CrystalChem, Downers Grove, Ill.). Total pancreas insulin content has been determined after extraction of insulin with a mixture Ethanol (70%)/HCl (0.15 N) from pancreas homogenates.

The test system of the next data set is human diabetic patients. Conditions: 4.5 g/day; cited from earlier work.
A short description of data set [6]: Diflunisal and NAC blood levels after oral administration of conjugate versus separate components. The format is in vivo, rats. Conditions: 7-hour timecourse (FIG. 16). The procedure: A comparison of diflunisal and NAC levels in blood after oral administration was performed in rats by administration of the diflunisal-NAC conjugate (GMC-252) or the individual components separately (i.e., not chemically conjugated). Conjugate (20 mg/kg) or the equivalent amount of difliunisal and NAC were administered and blood assayed over a 7-hour timecourse.

Data set [7] can be described thus: Cleavage by human liver microsomes. The data set is classed as in vitro ADME. As to conditions: 1 hour incubation; diflunisal-NAC compared with salicylate-NAC. The procedure: as §1
The capacity for conjugates of the invention to be cleaved was tested in vitro using rat or human liver microsomes. […]

A further data set deals with control animals. The experiment in a line: Preliminary experiment with control animals (oral diflunisal-NAC). The format is in vivo. As to conditions: oral 0.5 mmol/kg.
The test system of data set [8] is db/db mice. In words: Pancreas insulin content and immunohistochemical analysis of pancreas sections in db/db mice. The format is in vivo. As to conditions: chronic oral, four weeks, 0.5 mmol/kg/day (FIG. 24). The procedure:
as §2
The pancreas was removed from each mouse and fixed overnight in a solution of 4% formalin. Fixed tissues were processed routinely for paraffin embedding, and 6-μm sections were prepared and mounted on slides treated with xilane. For detection of insulin, the avidin-biotin complex (ABC) method was performed using Vectastain ABC Kit (Vector Laboratories). Deparaffinized and […] sections were microwaved in citrate buffer (pH 6.0) for antigen retrieval, then were incubated in Tris 100 mM pH 7.4 containing 3% BSA, and 0.01% Triton, to permeabilize and block nonspecific staining, for 30 min, and after that, were incubated with the guinea pig polyclonal anti-insulin antibody (Dako), diluted 1/500 in blocking solution for 2 hours. Negative controls were incubated with blocking solution without the primary antibody. […]

The mark [9] stands for this setting: 0.75 mmol/kg/day as lysine salt, ip, compared with separate administration of salicylate or NAC (FIG. 7).

`CC(=O)N[C@@H](CSC(=O)c1ccccc1O)C(=O)O` [Example 1, (R)-2-acetamido-3-(2-hydroxybenzoylthio)propanoic acid]: the “free fatty acid levels” value is reported as “lowered significantly only by the conjugate” in the data set with db/db mice [1] (0.38 mmol/kg/day or equivalent amount of combination (FIG. 18)), “significantly improved” in the data set on db/db mice [1] (setting [9]) and “statistically-significant reductions” in the data set on db/db mice [1] (0.75 mmol/kg/day or equivalent amount of combination (FIG. 18)). In addition, the plasma triglyceride levels result with db/db mice [1] (setting [9]) is given as “significantly improved”. Also, the triglycerides result in the data set on db/db mice [1] (chronic oral, diflunisal-NAC 0.5, salicylate-NAC 1.5 mmol/kg/day as lysine salt (FIG. 11)) is “significant réductions in triglycerides”. In addition, in [2] (3 h), the “stability under acidic conditions, lysine salt” value is “stable after 3 hours”. In addition, the “stability, free acid in the absence of lysine” value in data set [2] (3 days) was “lost stability during a 3-day timecourse”. Also, the “detectable conjugate under basic conditions” value in data set [2] (basic pH (9), PBS, room temperature, 3 hour incubation, free acid and lysine salt tested) is “only the lysine salt showed any (sparing) détectable conjugate”. Besides, the “plasma glucose in glucose tolerance test” value in the data set with db/db mice [3] was “reductions in plasma glucose”. Besides, the “cleavage of conjugate, rat versus human microsomes” value in data set [4] is “Rat microsomes were found to be more potent in cleaving”. Also, the glycemia result in data set [5] (0.38 mmol/kg or equivalent amount of combination, 4-day timecourse, male cd-1 mice (FIG. 17)) is given as “statistically-significant reduction”; in data set [5] (lysine salts, i.p., 4-day timecourse (FIG. 6)), “statistically-significant reductions in glycemia”. In addition, in data set [5] (alloxan-treated mice (FIG. 17)), the “pancreatic beta-cell function (as assessed by plasma insulin levels)” value is recorded as “statistically-significant potection of pancreatic beta-cell function”. The plasma insulin levels result in data set [5] (i.p., listed as GMC-3a) was “preservation of insulin levels”; in data set [5] (i.p., listed as salicylate-NAC) it was “an increase in plasma insulin levels”. For the same compound, the “effect of alloxan on β-cells” value in data set [5] (lysine salts (FIG. 6)) is “reduce the effect of alloxan on β-cells”.
Consider `CC(=O)NC(CSC(=O)C(C)c1ccc(CC(C)C)cc1)C(=O)O` (stereo not drawn) [Dexibuprofen-NAC], for which the “stability of free acid in water/methanol mixture” value in data set [2] (free acid, water/methanol, 3 and 24 hours (diflunisal-NAC: neutral pH, room temperature)) is “stable for 3- and 24-hour incubation”. Further, the “stability of lysine salt at neutral pH” value in [2] (lysine salt, neutral pH, room temperature or 4° C.) is recorded as “stable as lysine salts”.
As to `O=C(Oc1ccccc1C(=O)O)c1ccccc1O` [salsalate], the “enhancement of side effects such as tinnitus” value in the data set on human diabetic patients is 66%.
On to `CC(=O)N[C@@H](CSC(=O)c1cc(-c2ccc(F)cc2F)ccc1O)C(=O)O` [Example 13], for which the “plasma concentration profile of diflunisal and NAC” value in data set [6] (oral 20 mg/kg conjugate versus equivalent diflunisal and NAC given separately) is on record as “a more gradual increase in plasma concentrations”. The “final plasma concentrations of diflunisal and NAC” value in [6] (oral 20 mg/kg conjugate versus separate components) is recorded as “the final concentrations were the same”. The “percentage of anti-inflammatory component released by human liver microsomes” value in [7] is reported as “a higher percentage of diflunisal that salicyalte was released”. The “body weight and epididimal adipose tissue weight” value with control animals is listed as “did not affect these two parameters”. For the same compound, the “body weight of treated db/db mice” value in the data set with db/db mice [1] (oral 0.5 mmol/kg (FIG. 20)) is listed as “did not affect the weight”. Moreover, the “epididimal adipose tissue weight” value in the data set on db/db mice [1] (oral 0.5 mmol/kg, treated group (vehicle 1.7±0.09)) was determined as 1.8 ± 0.07 g. For the same compound, in the data set on db/db mice [1] (oral treatment of db/db mice), the “macroscopic lesions of the gastro intestinal system” value is recorded as “did not induce any macroscopic lesions”. In data set [2], the “stability of lysine salt in PBS, 3 hours” value was “stable” and the “stability of lysine salt in water/methanol mixture” value is reported as “did not show comparable stability”. In addition, in data set [2] (24 h, pH 7), the “stability of lysine salt in PBS, 24 hours” value is listed as “not after 24 hours”. Further, the “stability of free acid in water/methanol mixture” value in data set [2] (pH 7) was “stable over 3 and 24 hours”. Moreover, in data set [4], the “cleavage of conjugate, rat versus human microsomes” value was “Rat microsomes were found to be more potent in cleaving”. The “percentage of anti-inflammatory component released by rat liver microsomes” value in data set [4] (diflunisal-NAC compared with salicylate-NAC) is reported as “a higher percentage of diflunisal that salicyalte was released”. Further, in the data set on db/db mice [8], the pancreatic weight entry is on record as “without affecting pancreatic weight”.
